Experimental data reported in patent publication US10898504B2, “Substituted nucleoside analogues for use as PRMT5 inhibitors” (Janssen Pharmaceutica NV, priority 2016, dated 2021).
Several values for one entry are separate records, joined by “and”; a condition that tells them apart may be missing. Identical values can stand only once.

Columns and labels:
PRMT5-MEP50 enzyme = target: T1, PRMT5-MEP50 enzyme (Homo sapiens, UniProt O14744); assay: In vitro assay (Assay 1): PRMT5-MEP50 high throughput mass spectrometer assay, inhibition of SAH formation; format: biochemical; details: individual measurements shown, read-out: pIC50 Assay 1 (converted)
T1 construct: One virus expresses full length human PRMT5 with Flag-tag at N-terminus
Excerpt: EXPERIMENTAL PROCEDURES IN VITRO ASSAY (ASSAY 1)
PRMT5-MEP50 enzyme was purchased from Charles River (Argenta). The enzyme complex was produced in insect cells (Sf9) infected simultaneously with two baculoviruses. One virus expresses full length human PRMT5 with Flag-tag at N-terminus, the second virus expresses full length MEP50 with His6-TEV cleavage at N-terminus. The protein was affinity purified using anti-Flag (M2) beads eluted with 3×FLAG peptide, followed by His-Select eluted with 0.5M imidazole. Eluted protein was then dialysed against tris-buffered saline (TBS) (pH 8.0) containing 20% glycerol and 3 mM dithiothreitol (DTT).
Full-length untagged human recombinant histone H2A (residues 1-130, Genbank Accession #NM_021052, MW=14.1 kDa) expressed in E. coli was purchased from Reaction Biology Corporation, Cat #HMT-11-146. Reagents used for making reaction buffer or stopping reaction were purchased including Tris base (Sigma Cat #T-1503), NaCl (Sigma Cat #RGF-3270), MgCl2 (Sigma Cat #M0250), DTT (Invitrogen Cat #15508-013) and Formic Acid (Riedel deHaen, Cat #33015)
High Throughput Mass Spectrometer Assay
PRMT5 catalyzes the sequential methylations of the terminal nitrogen atoms on the guanidine groups of arginine residues within proteins using co-substrate S-adenosyl-L-methionine (AdoMet, SAM), forming mono-methyl (MMA), symmetric-dimethyl arginine (sDMA) and S-adenosyl-L-homocysteine (AdoHcy, SAH). The enzyme activity was determined by following the product SAH formation using high throughput mass spectrometry (Agilent Rapidfire 300 System coupled to a Sciex 4000 series QTrapm triple-quad MS/MS). The reaction buffer was 20 mM Tris-HC, pH 8.5, 50 mM NaCl, 5 mM MgCl2 and 1 mM DTT. The reaction activity was stopped using 1% formic acid (final concentration).
The IC50 Studies were performed using eleven point dosing series made for each compound by serially diluted 1:2 in dimethyl sulfoxide (DMSO), with point 12 being a DMSO control. Compounds were first spotted to plates, and followed by addition of 2 μM SAM and 0.6 μM H2A (histone H2A) solution mixture. The same volume of enzyme solution was added to initiate the enzymatic reactions. The final concentrations of the reaction are at 1 μM SAM, 0.3 μM H2A and 10 nM enzyme. The reaction was incubated at 30° C. for 60 minutes (min) and then quenched by addition of formic acid to a final concentration of 1%. The inhibitions of SAH formation in the presence of compounds were calculated as a percentage of the control relative to the uninhibited reaction as a function of inhibitor concentration. The data were fit as follows: Y=Bottom+(Top−Bottom)/(1+10^((log IC50−X)*h))
where IC50 is the inhibitor concentration (same unit as X) at 50% inhibition and h is the Hill slope. Y is percent of inhibition, X is log of compound concentration. Bottom and Top are the plateaus in same units as Y.

A549 cells = assay: PD assay (Assay 2): inhibition of nuclear symmetric Arginine dimethylation (SYM10 immunohistochemistry) in A549 cells; format: cell-based; details: individual measurements shown; for IC50: Homo sapiens, A549, PD assay in A549 cells, read-out: pIC50 Assay 2 (converted); for pIC50 Assay 2: PD assay in A549 cells
Protocol: EXPERIMENTAL PROCEDURE PD ASSAY (ASSAY 2)
A549 cells (ATCC, Cat #CCL-185) were cultured in Dulbecco's Modified Eagle's Medium (DMEM) (Sigma, Cat #D5796), supplemented with 10% Fetal Calf Serum (FCS)(HyClone™, Cat #SV30160.03), 100 mM Sodium Pyruvate (Sigma, Cat #S8636), 200 mM L-Glutamine (Sigma, Cat #G7513) and 50 mg/mL Gentamycing (Gibco, Cat #15750-037).
Reagents used for buffers were purchased: Dulbecco's phosphate buffered saline (DPBS) without Ca/Mg (Sigma, Cat #D8537), phosphate buffered saline (PBS) 10× (Roche, Cat #11 666 789 001), Formalin solution 10% (Sigma, HT50-1-128-4L), MeOH 100% (Sigma, Cat #32213-2.5L), Triton X-100 (Acros, Cat #215680010), Bovine Serum Albumin (BSA) (Sigma, Cat #A2153), Alexa fluor 488 goat anti-rabbit antibody (Life Technologies, Cat #A11034), HCS CellMask Deep Red Stain (Life Technologies, Cat #H32721), Hoechst Stain (Life Technologies, Cat #33258), Anti-dimethyl-Arginine, sym (SYM10) antibody (Millipore, 07-412).
Immunohistochemistry Procedure
Cells were plated at 400 cells/40 μL/well in 384 well black plates μclear bottom (Perkin Elmer) and overnight incubated at 37° C., 5% CO2. The IC50 Studies were performed using nine point dosing series ranging from 10 μM to […] for each compound. 80 nL of the respective dilution of the compounds was added using the Labcyte POD 810 (Labcyte) reaching a final DMSO concentration of 0.2% in cell culture. After an incubation period of 48 h at 37° C. and 5% CO2, cells were fixed in 10% formalin solution for 15 min at r.t. and 20 min in ice-cold MeOH, after which they were washed 3× in DPBS. Subsequently, the cells were blocked for 1 h in blocking buffer (PBS+1% BSA and 0.5% Triton X-100) and incubated overnight at 4° C. with the SYM10 antibody diluted 1/2000 in blocking buffer. The cells were washed 3× with washing buffer (PBS+0.1% Triton X-100) and incubated with the Alexa fluor 488 goat anti-rabbit antibody diluted 1/200 in blocking buffer for 1 h at r.t. Subsequently, they were washed 3× with washing buffer and incubated for 30 min at r.t. with PBS containing a 1/5000 dilution of Hoechst Stain and a 1/5000 dilution of the HCS CellMask Deep Red Stain. After a final wash with PBS, the plates were imaged using the 10×W lens of the Opera® system (Perkin Elmer Life Sciences) using following settings (values in nm):
In the above equations, the following variable names are use: […]
In the above equations, the following controls were used for normalization: […]
Low control: minimum level of symmetrically dimethylated Arginines (cells treated with reference compound at 10 μM).
High control: maximum level of symmetrically dimethylated Arginines (DMSO treated cells).
IC50 and pIC50 (−log IC50) values were calculated using the appropriate software.
pIC50 values (Co. No. means compound number; n.d. means not determined).

T1 sequence (O14744 whole entry): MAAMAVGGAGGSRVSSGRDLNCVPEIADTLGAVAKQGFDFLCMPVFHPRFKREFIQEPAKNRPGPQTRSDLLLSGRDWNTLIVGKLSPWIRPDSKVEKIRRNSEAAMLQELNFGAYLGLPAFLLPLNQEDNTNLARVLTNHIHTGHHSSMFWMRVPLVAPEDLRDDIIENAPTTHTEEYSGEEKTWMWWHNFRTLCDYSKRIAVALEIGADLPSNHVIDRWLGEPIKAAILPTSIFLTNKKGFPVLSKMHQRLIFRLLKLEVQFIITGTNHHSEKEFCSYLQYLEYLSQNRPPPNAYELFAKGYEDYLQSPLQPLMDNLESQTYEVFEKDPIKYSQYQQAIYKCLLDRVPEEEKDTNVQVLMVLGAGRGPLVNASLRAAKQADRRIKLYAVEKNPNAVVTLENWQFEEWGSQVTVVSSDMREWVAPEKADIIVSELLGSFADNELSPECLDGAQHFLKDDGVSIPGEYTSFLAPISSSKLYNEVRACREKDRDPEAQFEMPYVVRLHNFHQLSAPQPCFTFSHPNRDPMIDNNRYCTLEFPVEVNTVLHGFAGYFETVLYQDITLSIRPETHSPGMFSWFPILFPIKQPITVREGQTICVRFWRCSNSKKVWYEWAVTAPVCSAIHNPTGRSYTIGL
T1 sequence (Q9BQA1 whole entry partner): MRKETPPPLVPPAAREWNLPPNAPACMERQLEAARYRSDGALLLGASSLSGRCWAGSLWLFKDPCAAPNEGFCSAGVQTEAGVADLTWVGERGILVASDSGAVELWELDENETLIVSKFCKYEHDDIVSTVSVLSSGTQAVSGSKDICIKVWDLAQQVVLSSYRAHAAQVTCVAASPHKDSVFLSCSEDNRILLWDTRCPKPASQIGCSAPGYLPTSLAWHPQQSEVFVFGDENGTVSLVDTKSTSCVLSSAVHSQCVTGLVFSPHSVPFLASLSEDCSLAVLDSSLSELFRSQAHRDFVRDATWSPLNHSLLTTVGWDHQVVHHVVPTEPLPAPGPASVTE

Row | Structure (SMILES) | IC50 (PRMT5-MEP50 enzyme) | IC50 (A549 cells) [nM] | pIC50 Assay 2 (A549 cells)
1 | Nc1ncnn2c([C@@H]3O[C@H](CN4CCCC45CCN(CCc4ccc(F)cc4)CC5)[C@@H](O)[C@H]3O)ccc12 [Compound 139] | 3240 nM | 1660 | 
2 | Nc1ncnc2c1ccn2[C@@H]1O[C@H](CN2CCCC23CCN(C2COC2)CC3)[C@@H](O)[C@H]1O [Compound 198] | 437 nM | ~1100 | 
3 | CN1CCC2(CC1)CN(C[C@H]1O[C@@H](n3cnc4c(N)ncnc43)[C@H](O)[C@@H]1O)C2 [Compound 90] | 70800 nM | > 10000 | 
4 | CN(C)CC[C@@H]1CCCN1C[C@H]1O[C@@H](n2ccc3c(N)ncnc32)[C@H](O)[C@@H]1O [Compound 187] | 63.1 nM | 1700 | 
5 | Nc1ncnc2c1ccn2[C@@H]1O[C@H](CN2C(C(F)(F)F)CCC23CCNCC3)[C@@H](O)[C@H]1O (single isomer, unassigned) [Compound 115] | 23.4 nM | ~1660 | 
6 | CC(C)C(=O)O[C@@H]1[C@H](OC(=O)C(C)C)[C@@H](CN2CC(F)(F)CC23CCN(C)CC3)O[C@H]1c1ccc2c(N)ncnn12 [Compound 105] | > 10000 nM | 6610 | 
7 | Nc1ncnc2c1ccn2[C@@H]1O[C@H](CN2CCCC23CCN(CCc2ccc(F)cc2)CC3)[C@@H](O)[C@H]1O [Compound 170] | 42.7 nM | ~148 | 
8 | CCN1CCC2(CC1)CC(F)(F)CN2C[C@H]1O[C@@H](c2ccc3c(N)ncnn23)[C@H](O)[C@@H]1O [Compound 146] | 3980 nM | 4680 | 
9 | Nc1ncnc2c1ccn2[C@@H]1O[C@H](CN2CCCC3(COCCN3)C2)[C@@H](O)[C@H]1O (stereo partly shown) [Compound 37] | 170 nM | 5370 | 
10 | CN1CCC2(CCC=C2C[C@H]2C[C@@H](n3ccc4c(N)ncnc43)[C@H](O)[C@@H]2O)CC1 [Compound 206] | 5.13 nM | 64.6 | 
11 | Nc1ncnc2c1ccn2[C@@H]1O[C@H](CN2CCCC23CCN(Cc2nc4ccccc4[nH]2)CC3)[C@@H](O)[C@H]1O [Compound 177] | 191 nM | 457 | 
12 | CN1CCC2(CCCN2C[C@H]2O[C@@H](n3ccc4c(N)ncnc43)[C@H](O)[C@@H]2O)CC1 [Compound 168] | 26.3 nM and 17.4 nM and 8.51 nM | 204 | ~6.64 and ~6.7
13 | CN1CCCC12CCN(C[C@H]1O[C@@H](n3cnc4c(N)ncnc43)[C@H](O)[C@@H]1O)C2 (stereo partly shown) [Compound 15] | 29500 nM | > 10000 | 
14 | CC(C)C(=O)O[C@@H]1[C@@H](CN2CC(F)(F)CC23CCNCC3)C[C@@H](n2ccc3c(N)ncnc32)[C@@H]1OC(=O)C(C)C [Compound 164] | > 10000 nM | ~6460 | 
15 | CN(C)C[C@@H]1CC(F)(F)CN1C[C@H]1O[C@@H](c2ccc3c(N)ncnn23)[C@H](O)[C@@H]1O [Compound 151] | 5500 nM | ~6170 | 
16 | CN1CCC2(CC1)CC(F)(F)CN2C[C@H]1O[C@@H](c2ccc3c(N)ncnn23)[C@H](O)[C@@H]1O [Compound 147] | 186 nM | 603 | 

Row | Structure (SMILES) | IC50 (PRMT5-MEP50 enzyme) | IC50 (A549 cells) [nM] | pIC50 Assay 2 (A549 cells)
17 | Nc1ncnc2c1ccn2[C@@H]1O[C@H](CN2CCCC23CCN(CCOc2ccc(F)cc2)CC3)[C@@H](O)[C@H]1O [Compound 173] | 347 nM | 776 | 
18 | CN1CCC12CCN(C[C@H]1O[C@@H](n3cnc4c(N)ncnc43)[C@H](O)[C@@H]1O)C2 (stereo partly shown) [Compound 4] | 2290 nM | > 10000 | 
19 | Nc1ncnc2c1ccn2[C@@H]1O[C@H](CN2CCCC3(CCCCN3)C2)[C@@H](O)[C@H]1O (single isomer, unassigned) [Compound 36] | 1910 nM |  | ~5.13
20 | CC(C)C(=O)O[C@@H]1[C@H](OC(=O)C(C)C)[C@@H](CN2CC(F)(F)CC23CCN(C)CC3)O[C@H]1n1ccc2c(N)ncnc21 [Compound 103] | > 10000 nM |  | 6.46
21 | Nc1ncnc2c1ccn2[C@@H]1O[C@H](CN2CCCC3(CCCN3)C2)[C@@H](O)[C@H]1O (single isomer, unassigned) [Compound 39] | 67.6 nM | 11200 | 
22 | CN1CC2(CCCN(C[C@H]3O[C@@H](n4ccc5c(N)ncnc54)[C@H](O)[C@@H]3O)C2)C1 [Compound 74] | 37.2 nM and 35.5 nM | 372 | ~6.51
23 | Nc1ncnn2c([C@@H]3O[C@H](CN4CCCC45CCNCC5)[C@@H](O)[C@H]3O)ccc12 [Compound 133] | 28.8 nM | ~1050 | 
24 | CC(=O)O[C@H]1[C@@H](O)[C@H](n2ccc3c(N)ncnc32)O[C@@H]1CN1CCCC12CCN(C)CC2 [Compound 99] | 174 nM | 204 | 
25 | Nc1ncnc2c1ncn2[C@@H]1O[C@H](CN2CC3(CCCN3)C2)[C@@H](O)[C@H]1O [Compound 83] | 44700 nM | > 10000 | 
26 | NCC[C@@H]1CCCN1C[C@H]1O[C@@H](n2ccc3c(N)ncnc32)[C@H](O)[C@@H]1O [Compound 57] | 11.2 nM | 158 | 
27 | Nc1ncnc2c1ncn2[C@@H]1O[C@H](CN2CCCC3(CNC3)C2)[C@@H](O)[C@H]1O [Compound 82] | 126 nM | 2340 | 
28 | Nc1ncnc2c1ccn2[C@@H]1O[C@H](CN2CCCC3(CCCCN3)C2)[C@@H](O)[C@H]1O (single isomer, unassigned) [Compound 35] | 105 nM | ~6170 | 
29 | Nc1ncnc2c1ccn2[C@@H]1O[C@H](CN2CCOC3(CNC3)C2)[C@@H](O)[C@H]1O [Compound 31] | 39.8 nM | ~1450 | 
30 | CN1CCCCC12CN(C[C@H]1O[C@@H](n3cnc4c(N)ncnc43)[C@H](O)[C@@H]1O)C2 [Compound 10] | 38900 nM and 24500 nM | > 10000 | 
31 | Nc1nccc2c1ccn2[C@@H]1O[C@H](CN2CCCC23CCNCC3)[C@@H](O)[C@H]1O [Compound 61] | 129 nM | > 10000 | 
